For data set [1], the system named is IL-17A. Put plainly: IL-17A enzyme-linked immune quantitative assay in cytostim-activated human PBMC. To be noted: 72 h; IL-17A in supernatant of human PBMC, 3 days after drug treatment. The data set is classed as cell-based. Here is the method: 1. Human peripheral blood mononuclear cells (PBMC) (Zenbio)
5. Human IL-17 enzyme-linked immunosorbent kit (R&D System)
Frozen human peripheral blood mononuclear cells (PBMC) were rapidly resuscitated in pre-warmed lymphocyte culture medium, and centrifuged at 1000 rpm for 10 min. The cell culture supernatant was removed. The cells were gently suspended in TexMACS medium and counted. The T cell activation reagent cytostim (10 μl/ml) was added in proportion to the cell suspension. Then, the cells were seeded in a 96-well cell culture plate at a density of 1×10^5 peripheral blood mononuclear cells/well. The test compounds were diluted in gradient with TexMACS medium, and added respectively to the test wells, with 2-3 parallel wells per group. A negative control well containing only cells without cytostim was provided to obtain the background reading. The cell culture plate was placed in a incubator at 5% carbon dioxide, 37° C. to incubate for 3 days. The cell culture supernatant was collected 3 days after drug treatment, and centrifuged to remove the suspension. Then, IL-17A in the supernatant was quantified with IL-17A enzyme-linked immunosorbent kit. EC50 values of the test compounds were calculated with GraphPad Prism 6.0.

A short description of data set [2]: Pharmacokinetics assay in mice after intragastrical administration. The note with it: female, C57, mouse, plasma, po, 2 mg/kg. Type of data set: in vivo. Here is the method:
Mice were used as test animals. The drug concentration in plasma at different time points was determined by LC/MS/MS method after intragastrical administration of the compound of Example 4 to mice. The pharmacokinetic behavior of the compound of the present invention was studied and evaluated in mice. A group of nine C57 mice (female) were purchased from Shanghai Jiesijie Laboratory Animal Co., LTD, with Certificate No.: SCXK (Shanghai) 2013-0006. A certain amount of the test compound was weighed, and added with 5% by volume of DMSO, 5% by volume of tween 80 and 90% by volume of normal saline to prepare a 0.1 mg/mL colorless, clear and transparent solution. […] The samples were stored in heparinized tubes, and centrifuged for 10 minutes at 3500 rpm to separate the blood plasma. The plasma samples were stored at −20° C. The content of the test compound in the plasma of mice after intragastrical administration of the test compound at different concentrations was determined: 25 μL of mouse plasma at each time after administration was taken, added with 80 μL of the internal standard solution of camptothecin (100 ng/mL) and 200 μL of acetonitrile, vortex-mixed for 5 minutes, and centrifuged for 10 minutes (3600 rpm). 1 μL of the supernatant was taken from the plasma samples for LC/MS/MS analysis.

Data set [3] concerns MC38 colorectal tumor. Put plainly: Efficacy in isotype MC38 colorectal tumor mice model. The data set is classed as in vivo, C57BL/6 mice. Here is the method:
The inhibition effect of the compound of Example 4 on MC38 tumor growth was evaluated in MC38 mice model.
Experimental female C57BL/6 mice were purchased from Charles River Lab (U.S.A.). The mice weighed 20-25 gram, and were 7-9 weeks old when purchased. The mice (10 mice per cage) were maintained in a constant temperature of 23+1° C., and a humidity of 50-60%, and free access to food and water. The mice were treated and used in accordance with the Institutional Animal Care and Use Committee (IACUC approved guidelines). After the animals were purchased, the test was started after 7 days of adaptive feeding.
Female C57BL/6 mice (20-25 gram, 7-9 weeks old) were used in the experiment. In vivo antitumor activity of the compound of Example 4 administered alone or the compound of Example 4 administered in combination with anti-mouse PD-1 antibody was evaluated by detecting the growth of isotype MC38 colorectal tumor (Synta Pharmaceuticals) in inbred C57BL/6 mice. 500,000 (5×10^5) MC38 cells were implanted subcutaneously in the right abdomen of each mouse. After 5 days, when the tumor grew to 40-80 mm^3, the mice were grouped randomly. The compound of Example 4 (30 mg/kg) was administered twice a day for 21 consecutive days. During the treatment experiment in which the antibody was administered alone or in combination with the compound of Example 4, anti-mouse PD-1 (CD279) antibody (BioXcell) (5 mg/kg) was intraperitoneally injected (i.p.) to the mice bearing MC38 tumor fixedly on Day 5, 8, 11 and 14. The control group was administered with the vehicle CMC-Na drug formulation and the IgG2a isotype control antibody.
The tumor volume was measured with a caliper in three dimensions, and then calculated according to the following formula: tumor volume (mm^3)=l×w×h×0.5236, wherein 1 represents the length of the tumor, w represents the width of the tumor, and h represents the height of the tumor, in millimeters. Tumor growth inhibition rate TGI %=100×(TVcontrol−TVtumor)/(TVcontrol−TVinitial), wherein TVcontrol=the tumor volume of the control group; TVtumor=the tumor volume of the treatment group; and TVinitial=the initial tumor volume on Day 5.

Setting [4] is: 30 mg/kg in combination with anti-mouse PD-1 monoclonal antibody (5 mg/kg).

The values that follow come from patent US20200131123A1, “INDOLE-FORMAMIDE DERIVATIVE, PREPARATION METHOD THEREFOR AND USE THEREOF IN MEDICINE” (Jiangsu Hengrui Medicine Co., Ltd., priority 2017, published 2020).

Structures are written as SMILES.

In data set [1], `CCS(=O)(=O)c1ccc([C@H](CO)NC(=O)c2ccc3c(c2)cc(Cc2ccc(Cl)cc2C(F)(F)F)n3CCF)cc1` [Example 4, (R)-2-(4-Chloro-2-(trifluoromethyl)benzyl)-N-(1-(4-(ethylsulfonyl)phenyl)-2-hydroxyethyl)-1-(2-fluoroethyl)-1H-indole-5-carboxamide] showed a half-maximal effective concentration (EC50) of 85 nM and a maximal effect (Emax) of 93%. Moreover, the Vd/F in data set [2] (read-out: Apparent distribution volume Vz/F) came to 0.637 L/kg. Moreover, the AUC in data set [2] (read-out: Area under curve AUC) is 50600 ng·h/mL. For the same compound, the CL/F in data set [2] (read-out: Clearance CLz/F) stood at 0.66 mL/min/kg. Moreover, the half-life in data set [2] (read-out: Half-life T1/2 (converted)) was 672 min. In data set [2] (read-out: Plasma concentration Cmax), the Cmax is 3660 ng/mL. In addition, the MRT in data set [2] (read-out: Residence time MRT) was found to be 15.5 h. In addition, the “TGI (tumor growth inhibition rate)” value in data set [3] (30 mg/kg administered alone, oral, twice a day for 21 days) was determined as 40%. Further, in data set [3] (setting [4]), the “Effect of combined administration with PD-1 antibody” value was “synergistic effect” and the “TGI (tumor growth inhibition rate)” value worked out at 63%. In addition, in data set [3] (administered alone), the Antitumor activity result was “exhibits an antitumor activity”.
